One experiment concerns the target T1, CARM1 (Homo sapiens, UniProt Q86X55).
T1 construct: purchased Abcam (Cambridge, MA, USA)
T1 sequence (Q86X55 1-608): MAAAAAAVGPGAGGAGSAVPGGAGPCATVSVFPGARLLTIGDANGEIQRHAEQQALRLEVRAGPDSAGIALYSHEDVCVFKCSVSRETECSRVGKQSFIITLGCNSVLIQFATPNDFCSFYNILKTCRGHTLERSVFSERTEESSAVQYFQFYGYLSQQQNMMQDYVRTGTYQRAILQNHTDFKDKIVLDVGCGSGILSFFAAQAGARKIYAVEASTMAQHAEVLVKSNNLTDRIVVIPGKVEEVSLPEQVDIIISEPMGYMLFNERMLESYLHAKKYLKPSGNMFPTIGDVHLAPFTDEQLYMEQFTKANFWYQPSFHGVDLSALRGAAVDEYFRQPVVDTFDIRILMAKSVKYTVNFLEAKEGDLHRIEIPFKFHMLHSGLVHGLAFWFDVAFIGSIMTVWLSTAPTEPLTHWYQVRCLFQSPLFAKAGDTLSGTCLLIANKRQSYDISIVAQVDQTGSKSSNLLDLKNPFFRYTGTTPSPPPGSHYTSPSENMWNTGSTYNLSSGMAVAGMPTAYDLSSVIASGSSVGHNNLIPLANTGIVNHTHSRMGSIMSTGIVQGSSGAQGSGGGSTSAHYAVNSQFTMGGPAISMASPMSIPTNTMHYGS
Put plainly: In vitro CARM1 inhibition assay (3H-SAM, Flashplate). The format is biochemical. The settings on record: 30 min preincubation, pH 7.5. As for the experimental part:
(§1) Hit compounds were purchased from WuXi AppTec.
In vitro CARM1 inhibition assays were conducted as previously described. Before the reaction began, CARM1 was preincubated with compounds for 30 min at room temperature. […] Assay was performed at the condition of pH 7.5. The assay was quenched through the addition of 300 µM unlabelled SAM. The quantity of ^3H-labeled peptide produced was measured by Flashplate on a Topcount reader.

The next experiment has as its target T2, HDAC2 (Homo sapiens, UniProt Q92769).
T2 construct: purchased Abcam (Cambridge, MA, USA)
As to the kind of experiment: In vitro HDAC2 inhibition assay (Boc-Lys(acetyl)-AMC fluorogenic). The experiment is classed as biochemical. On the procedure:
as §1
In vitro HDAC2 inhibition assays were performed as previously stated. Briefly, 50 µL of various concentrations of tested compounds were mixed with 10 µL of HDAC2 enzyme solution. After 5 min of 37 °C incubation, 40 µL of the luorogenic substrate Boc-Lys(acetyl)-AMC was added. The mixture was incubated at 37 °C for 30 min and stopped by adding 100 µL of developer containing trypsin and TSA. Then, fluorescence intensity was determined 20 min later at excitation and emission wavelengths of 390 and 460 nm, respectively, using a microplate reader. The IC50 values were determined by the GraphPad Prism 6 program based on a sigmoidal dose − response equation, and the inhibition rates were calculated using the fluorescence intensity readings of the tested wells in comparison to those of the control wells.

Another experiment deals with DU145 xenograft tumour. Put plainly: In vivo anticancer activity, DU145 xenograft. Also on record: species or system BALB/c nude mice. The settings on record: 5, 10 and 20 mg/kg i.p., every four days, six times; dose-dependent. As for the experimental part:
The method of in vivo assay was described previously. We bought healthy female BALB/c nude mice from the animal experiment centre of Yangzhou University. All experiments involving animals were approved by the Animal Ethics Committee of China Pharmaceutical University. Mice were subcutaneously injected on the right flank with DU145 cells (200 µl, 1 × 10^7 cells). When tumour sizes reached 80–100 mm^3, mice were divided into four groups at random. Every four days for a total of six times, each group was injected intraperitoneally with the vehicle, CH-1 (5 mg/kg), CH-1 (10 mg/kg), and CH-1 (20 mg/kg). Tumour volume was measured every four days and calculated by the formula (c × c × d)/2 (c, the smallest diameter; d, the largest diameter).

For another experiment, the system named is RM-1 cells. As to the kind of experiment: MTT cell growth assay, RM-1. The settings on record: RM1, 72 h, read-out: RM-1 cell proliferation IC50.
The test system of a further experiment is PC-3 cells. As to the kind of experiment: MTT cell growth assay, PC-3. The settings on record: Homo sapiens, PC-3, 72 h, read-out: PC-3 cell proliferation IC50.
A further experiment has as its system DU145 cells. Put plainly: MTT cell growth assay, DU145. The settings on record: for inhibition at 1 µM: DU-145, read-out: DU145 (% inhibition rate, 1 μM).
The test system of the next experiment is LAPC4 cells. As to the kind of experiment: MTT cell growth assay, LAPC4. The settings on record: Homo sapiens, LAPC4, 72 h, read-out: LAPC4 cell proliferation IC50.
Another experiment has as its system 22RV1 cells. As to the kind of experiment: MTT cell growth assay, 22RV1. The settings on record: Homo sapiens, 22Rv1, 72 h, read-out: 22RV1 cell proliferation IC50.
Experiment [1] relates to multiple prostate-related tumour cells (DU145, RM-1, LAPC4, 22RV1, PC-3). As to the kind of experiment: MTT cell growth assay, prostate cancer cell panel. Conditions: Homo sapiens, read-out: anti-proliferative IC50 against prostate-related tumour cells.
Method: (§2) The American Type Culture Collection (ATCC) (Manassas, VA, USA) provided the human cancer cell lines including DU145, RM-1, LAPC4, 22RV1, and PC-3, which was then cultured in Dulbecco’s modified Eagle’s medium (DMEM) with 1% penicillin-streptomycin and 10% foetal bovine serum (FBS) in a humidified environment with 5% CO2 at 37 °C.
(§3) Based on the experimental method published previously, cell lines were prepared in cell suspension (5 × 10^4 cells/mL) and seeded into a 96-well plate[59].
[2] abbreviates: 37 °C, 30 min, read-out: HDAC2 (IC50).

Entries after “also recorded” stand apart in the source; their conditions may differ. Where two headings read alike, the source gives them in different places.

T2 sequence (Q92769 whole entry): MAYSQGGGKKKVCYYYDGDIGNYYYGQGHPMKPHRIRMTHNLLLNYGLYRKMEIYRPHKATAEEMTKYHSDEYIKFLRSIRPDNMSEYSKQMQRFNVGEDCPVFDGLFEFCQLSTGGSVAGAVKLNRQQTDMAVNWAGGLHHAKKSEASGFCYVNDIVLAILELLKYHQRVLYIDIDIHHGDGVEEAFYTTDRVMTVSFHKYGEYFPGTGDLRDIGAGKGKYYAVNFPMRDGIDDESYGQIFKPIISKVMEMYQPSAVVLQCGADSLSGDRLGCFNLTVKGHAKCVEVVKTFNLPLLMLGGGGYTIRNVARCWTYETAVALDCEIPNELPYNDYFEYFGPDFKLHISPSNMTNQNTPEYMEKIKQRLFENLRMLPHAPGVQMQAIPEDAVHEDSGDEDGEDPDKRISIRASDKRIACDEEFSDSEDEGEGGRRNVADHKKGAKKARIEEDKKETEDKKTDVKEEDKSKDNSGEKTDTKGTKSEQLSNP
Method for 22RV1 cells: as §2, §3
Method for DU145 cells: as §2, §3
Method for LAPC4 cells: as §2, §3
Method for PC-3 cells: The American Type Culture Collection (ATCC) (Manassas, VA, USA) provided the human cancer cell lines including DU145, RM-1, LAPC4, 22RV1, and PC-3, which was then cultured in Dulbecco’s modified Eagle’s medium (DMEM) with 1% penicillin-streptomycin and 10% foetal bovine serum (FBS) in a humidified environment with 5% CO2 at 37 °C. […] Hit compounds were purchased from WuXi AppTec.
as §3
Method for RM-1 cells: as §2, §3

As to `CNCCNCc1cccc(-c2nc(Nc3cccc(OCCCCCCC(=O)NO)c3)c(C)c(-c3ccnc4[nH]ccc34)n2)c1` [CH-1], the IC50 against CARM1 stood at 0.00371 ± 0.00011 µM; against HDAC2 it was 0.00407 ± 0.00025 µM; in the experiment on RM-1 cells, 0.71 µM; in the experiment on PC-3 cells, 0.43 µM; in the experiment on DU145 cells (Homo sapiens, DU-145, 72 h, read-out: DU145 cell proliferation IC50), 0.09 µM; in the experiment on LAPC4 cells, 0.68 µM. Moreover, the IC50 in the experiment with 22RV1 cells was 0.95 µM; in experiment [1] it was less than 1 µM. For the same compound, the “tumour volume / tumour growth versus vehicle” value with DU145 xenograft tumour is reported as “significantly inhibited tumour growth; also recorded: significantly reduced; also recorded: significant antitumour activity”. Moreover, the inhibition at 1 µM in the experiment with DU145 cells (Homo sapiens) amounted to 97%. In the experiment with DU145 cells (ratio of IC50 values), the “inhibitory activity on DU145 cells relative to vorinostat” value was “five times stronger”.

On to `CNCCNCc1cccc(-c2nc(Nc3cccc(OCCCCCCC(=O)NO)c3)c(C)c(-c3c(C)noc3C)n2)c1` [CH-2], for which the IC50 against CARM1 was 0.00538 ± 0.00054 µM; at HDAC2 (setting [2]), 0.00833 ± 0.00105 µM. Further, the inhibition at 1 µM in the experiment on DU145 cells (Homo sapiens) came out at 93%.

In the case of `CNCCNCc1cccc(-c2nc(Nc3cccc(OCCCCCCC(=O)NO)c3)c(C)c(-c3cccnc3)n2)c1` [CH-3], the IC50 against CARM1 was 0.0106 ± 0.00093 µM; at HDAC2 (setting [2]), 0.00583 ± 0.00041 µM. Also, in the experiment on DU145 cells (Homo sapiens), the inhibition at 1 µM was determined as 96%.

For `CNCCNCc1cccc(-c2nc(Nc3cccc(OCCCCCCC(=O)NO)c3)c(C)c(-c3cc4cccc(OC)c4[nH]3)n2)c1` [CH-4], the IC50 at CARM1 is 0.0255 ± 0.00112 µM; at HDAC2 (setting [2]), 0.00918 ± 0.00017 µM. In addition, in the experiment on DU145 cells (Homo sapiens), the inhibition at 1 µM turned out to be 92%.

In the case of `CNCCNCc1cccc(-c2nc(Nc3cccc(OCCCCCCC(=O)NO)c3)c(C)c(-c3cc4ccccc4s3)n2)c1` [CH-5], the IC50 on CARM1 is 0.0301 ± 0.00202 µM; at HDAC2 (setting [2]) it was 0.0173 ± 0.00196 µM. The inhibition at 1 µM with DU145 cells (Homo sapiens) turned out to be 85%.

Regarding `CNCCNCc1cccc(-c2nc(Cl)c(C)c(Nc3cccc(OCCCCCCC(=O)NO)c3)n2)c1` [CH-6], the IC50 at CARM1 is 0.0374 ± 0.00165 µM; at HDAC2 (setting [2]), 0.013 ± 0.00125 µM. The inhibition at 1 µM with DU145 cells (Homo sapiens) is 86%.

Take `CNCCNCc1cccc(-c2nc(Nc3cccc(OCCCCCCC(=O)NO)c3)c(C)c(Oc3ccccc3)n2)c1` [CH-7]: the results for the IC50 on CARM1 and at HDAC2 (setting [2]) were 0.0585 ± 0.00321 µM and 0.0248 ± 0.00153 µM, respectively. In addition, the inhibition at 1 µM with DU145 cells (Homo sapiens) came to 81%.

Consider `CNC[C@@H](O)COc1ccc(Cl)c(-c2nc(-c3c(C)noc3C)c(C)c(N3CC4(CCN(C(=O)OC)CC4)C3)n2)c1` [EZM2302, reference compound], for which the “HDAC2 (IC50, nM)” value at HDAC2 (37 °C, 30 min) is “no inhibition”. The inhibition at 1 µM with DU145 cells (Homo sapiens) is less than 50%.

Regarding `O=C(CCCCCCC(=O)Nc1ccccc1)NO` [vorinostat, reference compound], the “CARM1 (IC50, nM)” value on CARM1 is on record as “no inhibitory effect; also recorded: no inhibition”.

Values taken from paper PMC10399481, “Discovery and biological evaluation of novel CARM1/HDAC2 dual-targeting inhibitors with anti-prostate cancer agents” (Journal of Enzyme Inhibition and Medicinal Chemistry, 2023).
